This passage reports MIC, Activity and ED50 results from ChEMBL document CHEMBL1133990, “8-Amido-Bearing pseudomycin B (PSB) analogue: novel antifungal agents” (2001).

Converted amounts (≈) assume the structure as drawn.

One test deals with Candida albicans. In words: Concentration required to inhibit 90-100% of visible fungal growth in Candida albicans (A26) tested in vitro. In kind it is functional.
A further test deals with Cryptococcus neoformans. The experiment in a line: Concentration required to inhibit 90-100% of visible fungal growth in (M1 106) tested in vitro. The class given is functional.
Test [1] has as its system Mus musculus. The experiment in a line: Ability to induce tail vein irritation in mice administered intravenously determined by tail vein assay; Activity- clean. The class given is functional, organism-based.
In test [2] the test system is Mus musculus. The experiment in a line: Effective dose required to cure 50% of fungal infection in mice administered intraperitoneally tested in vivo. In kind it is functional.
A further test concerns Aspergillus fumigatus. In words: Concentration required to inhibit 90-100% of visible fungal growth in Aspergillus fumigatus (WM1) tested in vitro. In kind it is functional.
Test [3] deals with Mus musculus. The experiment in a line: Ability to induce tail vein irritation in mice administered intravenously determined by tail vein assay; Activity- Positive. The class given is functional, organism-based.

Broadly, the MIC is the smallest concentration in the dilution series that meets the test's criterion for growth inhibition. As a reminder, the ED50 is the midpoint of the dose-response relation. For `C/C=C1/NC(=O)[C@H]([C@H](C)O)NC(=O)[C@H](CCN)NC(=O)[C@H](CCCCN)NC(=O)[C@H](CC(=O)O)NC(=O)[C@@H](CCN)NC(=O)[C@@H](NC(=O)C[C@H](O)CCCCCCCCCCC)COC(=O)[C@H]([C@H](O)CCl)NC(=O)[C@H]([C@H](O)C(=O)NC)NC1=O`, the MIC in the test on Candida albicans is 1.25 µg/mL (≈ 1.02 µM); with Cryptococcus neoformans, 0.156 µg/mL (≈ 0.128 µM); in the test on Aspergillus fumigatus, over 20 µg/mL. In addition, the Activity result in the test with Mus musculus [1] was “Activity- clean”. Also, the ED50 with Mus musculus [2] is over 20 mg/kg.
The matching figures for `C/C=C1\NC(=O)[C@H]([C@H](C)O)NC(=O)[C@H](CCN)NC(=O)[C@H](CCCCN)NC(=O)[C@H](CC(=O)O)NC(=O)[C@@H](CCN)NC(=O)[C@@H](NC(=O)C[C@H](O)CCCCCCCCCCC)COC(=O)[C@H]([C@H](O)CCl)NC(=O)[C@H]([C@H](O)C(=O)NC(Cc2ccccc2)C(=O)OC)NC1=O` (some centres undefined): 10 µg/mL (≈ 7.3 µM), 1.25 µg/mL (≈ 0.913 µM), over 20 µg/mL, “Activity- clean” and over 20 mg/kg.
The matching figures for `C/C=C1/NC(=O)[C@H]([C@H](C)O)NC(=O)[C@H](CCN)NC(=O)[C@H](CCCCN)NC(=O)[C@H](CC(=O)O)NC(=O)[C@@H](CCN)NC(=O)[C@@H](NC(=O)C[C@H](O)CCCCCCCCCCC)COC(=O)[C@H]([C@H](O)CCl)NC(=O)[C@H]([C@H](O)C(=O)NCCN(C)C)NC1=O`: 5 µg/mL (≈ 3.91 µM), 1.25 µg/mL (≈ 0.978 µM), over 20 µg/mL, “Activity- clean” and over 20 mg/kg.
Regarding `C/C=C1\NC(=O)[C@H]([C@H](C)O)NC(=O)[C@H](CCN)NC(=O)[C@H](CCCCN)NC(=O)[C@H](CC(=O)O)NC(=O)[C@@H](CCN)NC(=O)[C@@H](NC(=O)C[C@H](O)CCCCCCCCCCC)COC(=O)[C@H]([C@H](O)CCl)NC(=O)[C@H]([C@H](O)C(=O)NCCC)NC1=O`, the MIC was 20 µg/mL (≈ 16 µM) with Candida albicans, 5 µg/mL (≈ 4 µM) in the test on Cryptococcus neoformans and over 20 µg/mL against Aspergillus fumigatus. Also, the Activity result in the test with Mus musculus [1] is “Activity- clean”. Also, the median effective dose (ED50) with Mus musculus [2] came out at 14 mg/kg.
Regarding `C/C=C1/NC(=O)[C@H]([C@H](C)O)NC(=O)[C@H](CCN)NC(=O)[C@H](CCCCN)NC(=O)[C@H](CC(=O)O)NC(=O)[C@@H](CCN)NC(=O)[C@@H](NC(=O)C[C@H](O)CCCCCCCCCCC)COC(=O)[C@H]([C@H](O)CCl)NC(=O)[C@H]([C@H](O)C(=O)NCCO)NC1=O`, the MIC was 5 µg/mL (≈ 4 µM) in the test on Candida albicans, 0.625 µg/mL (≈ 0.5 µM) against Cryptococcus neoformans and over 20 µg/mL against Aspergillus fumigatus. In the test on Mus musculus [1], the Activity result is recorded as “Activity- clean”.
As to `C/C=C1/NC(=O)[C@H]([C@H](C)O)NC(=O)[C@H](CCN)NC(=O)[C@H](CCCCN)NC(=O)[C@H](CC(=O)O)NC(=O)[C@@H](CCN)NC(=O)[C@@H](NC(=O)C[C@H](O)CCCCCCCCCCC)COC(=O)[C@H]([C@H](O)CCl)NC(=O)[C@H]([C@H](O)C(=O)NCCCC)NC1=O`, the MIC in the test on Candida albicans is 20 µg/mL (≈ 15.8 µM); against Cryptococcus neoformans it was 1.25 µg/mL (≈ 0.99 µM); against Aspergillus fumigatus it was over 20 µg/mL. For the same compound, in the test on Mus musculus [1], the Activity result was “Activity- clean”. In the test with Mus musculus [2], the ED50 was over 20 mg/kg.
The matching figures for `C/C=C1/NC(=O)[C@H]([C@H](C)O)NC(=O)[C@H](CCN)NC(=O)[C@H](CCCCN)NC(=O)[C@H](CC(=O)O)NC(=O)[C@@H](CCN)NC(=O)[C@@H](NC(=O)C[C@H](O)CCCCCCCCCCC)COC(=O)[C@H]([C@H](O)CCl)NC(=O)[C@H]([C@H](O)C(=O)NC2CC2)NC1=O`: 5 µg/mL (≈ 4.01 µM), 0.312 µg/mL (≈ 0.25 µM), over 20 µg/mL, “Activity- clean” and over 20 mg/kg.
The matching figures for `C/C=C1/NC(=O)[C@H]([C@H](C)O)NC(=O)[C@H](CCN)NC(=O)[C@H](CCCCN)NC(=O)[C@H](CC(=O)O)NC(=O)[C@@H](CCN)NC(=O)[C@@H](NC(=O)C[C@H](O)CCCCCCCCCCC)COC(=O)[C@H]([C@H](O)CCl)NC(=O)[C@H]([C@H](O)C(=O)NC2CCC2)NC1=O`: 5 µg/mL (≈ 3.97 µM), 1.25 µg/mL (≈ 0.991 µM), over 20 µg/mL, “Activity- clean” and over 20 mg/kg.
Consider `C/C=C1/NC(=O)[C@H]([C@H](C)O)NC(=O)[C@H](CCN)NC(=O)[C@H](CCCCN)NC(=O)[C@H](CC(=O)O)NC(=O)[C@@H](CCN)NC(=O)[C@@H](NC(=O)C[C@H](O)CCCCCCCCCCC)COC(=O)[C@H]([C@H](O)CCl)NC(=O)[C@H]([C@H](O)C(=O)O)NC1=O`, for which the results for the MIC against Candida albicans, with Cryptococcus neoformans and against Aspergillus fumigatus were 0.625 µg/mL (≈ 0.517 µM), 0.078 µg/mL (≈ 0.0646 µM) and over 20 µg/mL, respectively. Moreover, in the test with Mus musculus [3], the Activity result is given as “Activity- Positive”.
Consider `C/C=C1/NC(=O)[C@H]([C@H](C)O)NC(=O)[C@H](CCN)NC(=O)[C@H](CCCCN)NC(=O)[C@H](CC(=O)O)NC(=O)[C@@H](CCN)NC(=O)[C@@H](NC(=O)C[C@H](O)CCCCCCCCCCC)COC(=O)[C@H]([C@H](O)CCl)NC(=O)[C@H]([C@H](O)C(=O)NCC(=O)OC)NC1=O`, for which the MIC in the test with Candida albicans is 2.5 µg/mL (≈ 1.95 µM); in the test on Cryptococcus neoformans it was 0.08 µg/mL (≈ 0.0626 µM); with Aspergillus fumigatus, over 20 µg/mL. The Activity result with Mus musculus [1] is on record as “Activity- clean”. For the same compound, in the test with Mus musculus [2], the ED50 was over 20 mg/kg.
For `C/C=C1/NC(=O)[C@H]([C@@H](C)O)NC(=O)[C@H](CCN)NC(=O)[C@H](CCCCN)NC(=O)[C@H](CC(=O)O)NC(=O)[C@@H](CCN)NC(=O)[C@@H](NC(=O)C[C@H](O)CCCCCCCCCCC)COC(=O)[C@H]([C@H](O)CCl)NC(=O)[C@H]([C@H](O)C(=O)NCCCN(C)C)NC1=O`, the MIC is 20 µg/mL (≈ 15.5 µM) in the test on Candida albicans, 1.25 µg/mL (≈ 0.968 µM) against Cryptococcus neoformans and over 20 µg/mL against Aspergillus fumigatus.
For the compound `C/C=C1/NC(=O)[C@H]([C@H](C)O)NC(=O)[C@H](CCN)NC(=O)[C@H](CCCCN)NC(=O)[C@H](CC(=O)O)NC(=O)[C@@H](CCN)NC(=O)[C@@H](NC(=O)C[C@H](O)CCCCCCCCCCC)COC(=O)[C@H]([C@H](O)CCl)NC(=O)[C@H]([C@H](O)C(N)=O)NC1=O`, the figures for the MIC in the test with Candida albicans, against Cryptococcus neoformans and against Aspergillus fumigatus were 0.312 µg/mL (≈ 0.259 µM), under 1 µg/mL and over 20 µg/mL, respectively. Further, the Activity entry in the test on Mus musculus [1] is “Activity- clean”. The compound further had an ED50 in the test with Mus musculus [2] of over 20 mg/kg.
`C/C=C1/NC(=O)[C@H]([C@@H](C)O)NC(=O)[C@H](CCN)NC(=O)[C@H](CCCCN)NC(=O)[C@H](CC(=O)O)NC(=O)[C@@H](CCN)NC(=O)[C@@H](NC(=O)C[C@H](O)CCCCCCCCCCC)COC(=O)[C@H]([C@H](O)CCl)NC(=O)[C@H]([C@H](O)C(=O)NCC)NC1=O`: the minimal inhibitory concentration (MIC) against Candida albicans is 10 µg/mL (≈ 8.1 µM); against Cryptococcus neoformans, 1.25 µg/mL (≈ 1.01 µM); in the test on Aspergillus fumigatus, over 20 µg/mL.
